This is an account of results in patent US4684665A, “Sebosuppressive benzoic acid ester derivatives and cosmetic preparations containing them” (Henkel Kommanditgesellschaft auf Aktien, priority 1985, dated 1987).

In the test the test system is accumulation of sebum. Briefly: Anti-seborrheic activity on the shaved back of rats (browning, second evaluation method), % sebum reduction. Type of test: in vivo. Conditions: topical, once daily on 9 of 14 days, male Wistar rats, treated side vs untreated control group; for % Sebum reduction at the indicated concentration of active substance: 0.05%: 0.05 wt. % in alcohol; for % Sebum reduction at the indicated concentration of active substance: 0.1%: 0.1 wt. % in alcohol; for % Sebum reduction at the indicated concentration of active substance: 0.02%: 0.02 wt. % in alcohol. From the text:
Male Wistar rats having a body weight ranging from 220 to 230 g at the beginning of the tests were used as the test animals. The accumulation of sebum in the test animals was examined by visually observing the degree of browning on the shaved back of the rats. Browning is caused by the accumulation of the brown skin surface lipid secreted by the rats. This test is based on the observation that young female rats, as well as male rats washed with a surfactant solution or with a lipid solvent or male rats systematically treated with estrogens show only a normal light, pink-colored skin after shaving, while at the same time, only comparatively very small quantities of lipids can be extracted from the shaved hairs.
In order to assess the anti-seborrheic effectiveness of the alkoxy and alkylbenzyloxy benzoic acid esters of the present invention, alcoholic solutions of test substances (B), (E), (F), (H) and (I) were each brushed onto one side of the back of 6 rats. The benzoic acid ester derivatives tested were applied in concentrations ranging from 0.02 to 0.1 wt. % in the alcohol.
The test period consisted of 14 days. The test substances were applied, once daily on 9 of the 14 days. A second group of 6 rats which were not treated was used as an additional control. At the end of the test period, the backs and sides of the animals were shaved and visually inspected. The examination was done independently by an evaluation panel composed of 6 people using double blind techniques.
A second criterion of evaluation is the intensity of the brown coloration in the shaved area. The following scale is used for this analysis:
According to this second method of evaluation, differences in the total points between the untreated control animals and the treated and untreated sides (ΔP) of the test animals respectively are calculated. Significant differences between the total point values assigned to the control animals and the values assigned to the treated side of the test animals again indicate the antiseborrheic effectiveness of a substance.
The results are presented in terms of sebum reduction percentage. The sebum reduction percentage is calculated from the point differences by determining the quotient of the difference in total points between the control group and the treated side of the test animals (ΔP) and the total number of points for the control group (Pk) and then expressing the value obtained in percent. [formula]

For the compound `CCCCCCCCCCCCOCCOc1ccc(C(=O)OCCCO)cc1` [H, 4-(2-dodecyloxy-ethoxy)-benzoic acid-3-hydroxypropyl ester], the “% Sebum reduction at the indicated concentration of active substance: 0.05%” value (“% Sebum reduction … 0.05%” for short) amounted to 71%. As to `CCCCCCCCCCCCOc1ccc(C(=O)OC)cc1` [4-dodecyloxy benzoic acid methyl ester, reference compound], the “% Sebum reduction … 0.05%” value is 0% and the “% Sebum reduction at the indicated concentration of active substance: 0.1%” value (from here on “% Sebum reduction … 0.1%”) is recorded as 18%. As to “4-isotridecyloxy-benzoic acid methylester”, the “% Sebum reduction at the indicated concentration of active substance: 0.02%” value turned out to be 83% and the “% Sebum reduction … 0.05%” value came out at 83%. Turning to `COC(=O)c1ccc(OCCC(C)CC(C)(C)C)cc1` (stereo not drawn) [Compound B, 4-(3,5,5-trimethylhexyloxy)-benzoic acid methylester], the “% Sebum reduction … 0.05%” value worked out at 36% and the “% Sebum reduction … 0.1%” value is 76%.

Regarding `CCCCCCCCCCCCOc1ccc(C(=O)OCCCO)cc1` [4-dodecyloxy benzoic acid-3-hydroxypropyl ester, reference compound], the “% Sebum reduction … 0.05%” value is recorded as 18% and the “% Sebum reduction … 0.1%” value is listed as 33%. For the compound `CCCCCCCCCCCCOCCOc1ccc(C(=O)OC)cc1` [F, 4-(2-dodecyloxyethoxy)-benzoic acid methylester], the “% Sebum reduction … 0.05%” value worked out at 63%. Consider `COC(=O)c1ccc(OCc2ccc(C(C)(C)C)cc2)cc1` [Compound E, 4-(4-tert-butylbenzyloxy)-benzoic acid methylester], for which the “% Sebum reduction at the indicated concentration of active substance: 0.02%” value is 10% and the “% Sebum reduction … 0.05%” value is listed as 77%.
